In the supplement of paper PMC10307832:

Legend:
Test in all cases: relative viability (nuclei count vs DMSO), 5 days (fraction); higher = more cells survive
[1] = compound: C#Cc1cccc(Nc2ncnc3cc(OCCOC)c(OCCOC)cc23)c1 [Erlotinib] + CS(=O)(=O)N1CCN(Cc2cc3nc(-c4cccc5[nH]ncc45)nc(N4CCOCC4)c3s2)CC1 [Pictilisib] (partner 1 µM)
Outline: (§1)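 Dosing by pin tool came one day after lung cancer cell lines were seeded in 1536-well plates, using either one drug or a fixed anchor-drug dose plus five library-drug doses (not always all listed) in √10 steps. After 5 days, nuclei were counted on 4× images. Relative viability is treated-well nuclei count divided by vehicle-well nuclei count, and values are medians of duplicate plates.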

[2] = compound: C#Cc1cccc(Nc2ncnc3cc(OCCOC)c(OCCOC)cc23)c1 [Erlotinib] + Cc1cc(Nc2cc(N3CCN(C)CC3)nc(Sc3ccc(NC(=O)C4CC4)cc3)n2)n[nH]1 [Tozasertib] (partner 0.1 µM)
Outline: as §1

[3] = compound: O=C(Nc1c[nH]nc1-c1nc2ccc(CN3CCOCC3)cc2[nH]1)NC1CC1 [AT9283] + Nc1ncn([C@H]2C[C@H](O)[C@@H](CO)O2)c(=O)n1 [Decitabine] (partner 2 µM)
Outline: as §1

[4] = compound: C#Cc1cccc(Nc2ncnc3cc(OCCOC)c(OCCOC)cc23)c1 [Erlotinib] + CC(=O)c1c(C)c2cnc(Nc3ccc(N4CCNCC4)cn3)nc2n(C2CCCC2)c1=O [Palbociclib] (partner 0.5 µM)
Outline: as §1

[5] = compound: O=C(Nc1c[nH]nc1-c1nc2ccc(CN3CCOCC3)cc2[nH]1)NC1CC1 [AT9283] + O=C(c1cc(Cc2n[nH]c(=O)c3ccccc23)ccc1F)N1CCN(C(=O)C2CC2)CC1 [Olaparib] (partner 8 µM)
Outline: as §1

Row | Cell Line | relative viability ([1]; first compound 0.02 µM) | relative viability ([1]; first compound 0.2 µM) | relative viability ([1]; first compound 0.6325 µM) | relative viability ([1]; first compound 2 µM) | relative viability ([2]; first compound 0.02 µM) | relative viability ([2]; first compound 0.2 µM) | relative viability ([2]; first compound 0.6325 µM) | relative viability ([2]; first compound 2 µM) | relative viability ([3]; first compound 0.003 µM) | relative viability ([3]; first compound 0.03 µM) | relative viability ([3]; first compound 0.09487 µM) | relative viability ([3]; first compound 0.3 µM) | relative viability ([4]; first compound 0.02 µM) | relative viability ([4]; first compound 0.2 µM) | relative viability ([4]; first compound 0.6325 µM) | relative viability ([4]; first compound 2 µM) | relative viability ([5]; first compound 0.003 µM) | relative viability ([5]; first compound 0.03 µM) | relative viability ([5]; first compound 0.09487 µM) | relative viability ([5]; first compound 0.3 µM)
1 | 201T | 0.694 | 0.651 | 0.692 | 0.664 | 0.965 | 0.915 | 0.877 | 0.707 | 0.654 | 0.849 | 0.322 | 0.345 | 0.35 | 0.323 | 0.319 | 0.287 | 0.867 | 0.815 | 0.356 | 0.335
2 | A549 | 0.471 | 0.529 | 0.582 | 0.406 |  |  |  |  | 0.136 | 0.114 | 0.0516 | 0.05 |  |  |  |  | 0.358 | 0.0601 | 0.0514 | 0.069
3 | A-427 | 0.826 | 0.682 | 0.829 | 0.76 | 0.251 | 0.225 | 0.197 | 0.162 | 0.6 | 0.494 | 0.239 | 0.248 | 0.485 | 0.492 | 0.529 | 0.53 | 0.652 | 0.428 | 0.292 | 0.27
4 | ABC-1 | 0.656 | 0.71 | 0.847 | 0.589 | 0.154 | 0.172 | 0.173 | 0.148 | 1.3 | 0.513 | 0.346 | 0.346 |  | 0.585 | 0.489 |  | 0.853 | 0.324 | 0.551 | 0.417
5 | BEN | 0.466 | 0.483 | 0.683 | 0.514 | 0.593 | 0.462 | 0.468 | 0.436 | 0.52 | 0.557 | 0.347 | 0.347 | 0.497 | 0.442 | 0.507 | 0.483 | 0.969 | 0.747 | 0.481 | 0.298
6 | CAL-12T | 0.277 | 0.388 | 0.419 | 0.274 | 0.357 | 0.226 | 0.188 | 0.153 |  |  |  |  | 0.433 | 0.125 | 0.154 | 0.146 | 0.734 | 0.536 | 0.307 | 0.222
7 | COR-L23 | 0.898 | 0.692 | 1.04 | 0.656 | 0.253 | 0.202 | 0.163 | 0.114 | 0.385 | 0.304 | 0.169 | 0.168 | 0.292 | 0.287 | 0.383 | 0.29 | 0.331 | 0.156 | 0.115 | 0.137
8 | COR-L 105 | 0.406 | 0.342 | 0.351 | 0.332 | 0.335 | 0.305 | 0.217 | 0.227 | 0.67 | 0.394 | 0.317 | 0.328 | 0.402 | 0.322 | 0.359 | 0.328 | 0.625 | 0.408 | 0.37 | 0.325
9 | Calu-6 | 0.94 | 0.856 | 0.913 | 0.817 |  |  |  |  |  |  |  |  |  |  |  |  | 0.575 | 0.228 | 0.178 | 0.197
10 | ChaGo-K-1 | 0.472 | 0.659 | 1.05 | 0.508 | 0.214 | 0.186 | 0.179 | 0.185 | 0.483 | 0.523 | 0.26 | 0.222 | 0.89 | 0.952 | 0.951 | 0.854 | 0.444 | 0.352 | 0.252 | 0.203
11 | EBC-1 | 0.382 | 0.322 | 0.309 | 0.259 |  |  |  |  |  |  |  |  |  |  |  |  | 0.669 | 0.334 | 0.18 | 0.145
12 | EKVX | 0.405 | 0.217 | 0.191 | 0.109 | 0.329 | 0.226 | 0.212 | 0.111 | 0.38 | 0.246 | 0.234 | 0.215 | 0.348 | 0.191 | 0.205 | 0.115 | 0.796 | 0.758 | 0.496 | 0.239
13 | EMC-BAC-2 | 0.543 | 0.535 | 0.542 | 0.47 | 0.279 | 0.345 | 0.32 | 0.25 | 0.992 | 0.496 | 0.338 | 0.321 | 0.529 | 0.501 | 0.553 | 0.505 | 0.502 | 0.301 | 0.261 | 0.203
14 | EPLC-272H | 0.314 | 0.279 | 0.352 | 0.242 | 0.22 | 0.291 | 0.235 | 0.183 | 0.379 | 0.395 | 0.185 | 0.161 | 0.337 | 0.307 | 0.278 | 0.279 | 0.698 | 0.18 | 0.107 | 0.119
15 | H3255 | 0.497 | 0.159 | 0.118 | 0.0937 |  | 0.564 | 0.211 | 0.142 | 0.577 | 0.556 | 0.352 | 0.222 | 0.31 | 0.325 | 0.275 | 0.251 | 0.553 | 0.52 | 0.545 | 0.231
16 | HARA | 0.555 | 0.46 | 0.311 | 0.155 | 0.0745 | 0.0897 | 0.0791 | 0.0606 | 0.46 | 0.264 | 0.165 | 0.185 | 0.233 | 0.224 | 0.241 | 0.188 | 0.756 | 0.278 | 0.205 | 0.179
17 | HCC-15 | 0.758 |  | 0.735 | 0.659 | 0.411 | 0.444 | 0.398 | 0.16 | 0.604 | 0.309 | 0.182 | 0.126 | 0.727 | 0.672 | 0.751 | 0.71 | 0.691 | 0.574 | 0.192 | 0.183
